Data published in the OligoGym collection.
Bases are written 5' to 3'; sugars and linkages follow in the same order, as letters with counts (s phosphorothioate, o phosphodiester; PS: all linkages phosphorothioate). The collection does not say whether C is 5-methylated. l = locked nucleic acid (LNA); d = 2'-deoxy (DNA)

molecular target: Tau; assay: rat primary cortical neurons, FLIPR, 25 uM ASO

How did the calcium oscillation score turn out when GGACGTTGCTAAGATC (sugars l3 d10 l3, PS) was run?
Its calcium oscillation score is 3.32 % of control.

For “ACCGAACTGCGAGGAGCAGC (sugars l3 d14 l3, PS)”, which calcium oscillation score is on record?
The calcium oscillation score was 0 % of control.

For “CCAGCGTGATCTTCCATCAC (sugars l5 d11 l4, PS)”, which calcium oscillation score is on record?
The calcium oscillation score was 91.6 % of control.

CATGATTGTGGGCTT (sugars l3 d9 l3, PS) was tested. Which calcium oscillation score did it give?
Its calcium oscillation score is 0 % of control.

Which calcium oscillation score does the source give for ACTGATCATAATCCTAC (sugars l4 d9 l4, PS) here?
Its calcium oscillation score is 68.2 % of control.

With “TTAACTCATCAACACCTTTT (sugars l4 d13 l3, PS)” as the sequence, how does the calcium oscillation score read?
Its calcium oscillation score is 59 % of control.

How did the calcium oscillation score turn out when CGTTTTCTTACCACCC (sugars l2 d12 l2, PS) was run?
The calcium oscillation score was 46.2 % of control.

How did the calcium oscillation score turn out when “TACCTTTTTATTTCCTC (sugars l4 d11 l2, PS)” was run?
Its calcium oscillation score is 41.6 % of control.

Which calcium oscillation score does the source give for “ATGGATGTTGCCTAATGAGC (sugars l3 d14 l3, PS)” here?
Its calcium oscillation score is 0 % of control.

Which calcium oscillation score does the source give for “TGAGCCACACTTGGAGGTCA (sugars l3 d14 l3, PS)” here?
The calcium oscillation score was 4.52 % of control.

GCTCTTCAAATCATTC (sugars l4 d8 l4, PS) was tested. Which calcium oscillation score did it give?
The calcium oscillation score was 58.3 % of control.

Which calcium oscillation score does the source give for “ACCCCATTTTTGACATA (sugars l3 d12 l2, PS)” here?
The calcium oscillation score was 73.1 % of control.

TCTCTGCTTACAAAATC (sugars l4 d9 l4, PS) was tested. Which calcium oscillation score did it give?
Its calcium oscillation score is 66.8 % of control.

Which calcium oscillation score does the source give for “ACCAACTTTCATCTACTTTT (sugars l3 d15 l2, PS)” here?
Its calcium oscillation score is 90.5 % of control.

How did the calcium oscillation score turn out when “CAGATTTTACTTCCACCT (sugars l2 d14 l2, PS)” was run?
Its calcium oscillation score is 44.7 % of control.

“GCCAGGGACGTGGGTGATAT (sugars l3 d14 l3, PS)” was tested. Which calcium oscillation score did it give?
Its calcium oscillation score is 0 % of control.

AACTGCGAGGAGCAGC (sugars l3 d10 l3, PS) was tested. Which calcium oscillation score did it give?
The calcium oscillation score was 25.9 % of control.

For “TTGTCCAGGGACCCAATCTT (sugars l3 d14 l3, PS)”, which calcium oscillation score is on record?
The calcium oscillation score was 3.32 % of control.

How did the calcium oscillation score turn out when TGTCGATGCTGCCG (sugars l3 d8 l3, PS) was run?
The calcium oscillation score was 52.2 % of control.

How did the calcium oscillation score turn out when “TCTCAGCTCTTCCATAAGCA (sugars l3 d14 l3, PS)” was run?
The calcium oscillation score was 82.6 % of control.

Which calcium oscillation score does the source give for “CACCCACTTTCCTAATTCC (sugars l1 d16 l2, PS)” here?
The calcium oscillation score was 60.9 % of control.

Which calcium oscillation score does the source give for TCAGTCCTAATCCTGT (sugars l3 d10 l3, PS) here?
The calcium oscillation score was 53.3 % of control.

For AATTAGTCACATACCA (sugars l4 d8 l4, PS), which calcium oscillation score is on record?
The calcium oscillation score was 85 % of control.

With “GTTAAGTGATTAACCAATTA (sugars l3 d14 l3, PS)” as the sequence, how does the calcium oscillation score read?
Its calcium oscillation score is 84.3 % of control.

With ATCAGAGGGTCTGAGC (sugars l3 d10 l3, PS) as the sequence, how does the calcium oscillation score read?
The calcium oscillation score was 59.3 % of control.

Which calcium oscillation score does the source give for “TCAGCTTGTGGGTTTCAATC (sugars l3 d14 l3, PS)” here?
The calcium oscillation score was 13.3 % of control.

How did the calcium oscillation score turn out when “TTATTTCCAAATTCACTTTT (sugars lldllddddddddddldlll, PS)” was run?
The calcium oscillation score was 81 % of control.

With “GTAGACTATTTGCACACTGC (sugars l3 d14 l3, PS)” as the sequence, how does the calcium oscillation score read?
The calcium oscillation score was 11.1 % of control.

For “CTTTATTTCCAAATTCACTT (sugars l2 d1 l2 d11 l4, PS)”, which calcium oscillation score is on record?
The calcium oscillation score was 0 % of control.

With “ACTCATTTACCAATTATCTT (sugars l2 d14 l4, PS)” as the sequence, how does the calcium oscillation score read?
The calcium oscillation score was 60.6 % of control.

With CGAGTCTACCATGTCG (sugars l3 d10 l3, PS) as the sequence, how does the calcium oscillation score read?
The calcium oscillation score was 103 % of control.

How did the calcium oscillation score turn out when GTCCTAATCCTGTGCT (sugars l3 d10 l3, PS) was run?
Its calcium oscillation score is 87.8 % of control.

With “CCCAGCACACAGGCAGCCAC (sugars l3 d14 l3, PS)” as the sequence, how does the calcium oscillation score read?
Its calcium oscillation score is 24.2 % of control.

AGGTCAACTGGTTT (sugars l3 d8 l3, PS) was tested. Which calcium oscillation score did it give?
The calcium oscillation score was 117 % of control.

How did the calcium oscillation score turn out when “CGGTAGGAAAGACATTTCCC (sugars l3 d14 l3, PS)” was run?
Its calcium oscillation score is 10.1 % of control.

“CTTTATTTCCAAATTCACT (sugars l5 d9 l1 d1 l3, PS)” was tested. Which calcium oscillation score did it give?
The calcium oscillation score was 110 % of control.

For “TTATTTCCAAATTCACTTTT (sugars lldldldddddddddlldll, PS)”, which calcium oscillation score is on record?
The calcium oscillation score was 110 % of control.

With CAAACAGGATACAGT (sugars l3 d9 l3, PS) as the sequence, how does the calcium oscillation score read?
Its calcium oscillation score is 49.6 % of control.

For “AGACACCTCGTCAGCTAGCG (sugars l3 d14 l3, PS)”, which calcium oscillation score is on record?
The calcium oscillation score was 9.07 % of control.

How did the calcium oscillation score turn out when CCTTTGAAAGTCCTTT (sugars l2 d12 l2, PS) was run?
Its calcium oscillation score is 96.4 % of control.

How did the calcium oscillation score turn out when “TCTCAAAAATCAACGCC (sugars l4 d10 l3, PS)” was run?
The calcium oscillation score was 94.5 % of control.

How did the calcium oscillation score turn out when AAGCATTTCAAGATAC (sugars l3 d10 l3, PS) was run?
The calcium oscillation score was 66.7 % of control.

For GATACCCTTCCTCAGA (sugars l2 d12 l2, PS), which calcium oscillation score is on record?
The calcium oscillation score was 30.9 % of control.
